The values below are quoted from earlier work in US5086043A, “Production of Saponins of Lichi” (priority 1990, dated 1992).

Data set [1] concerns carrageenin-induced swelling. The conditions noted are these: rats; established in the prior art.
Data set [2] deals with capillary permeability. The note with it: mice; established in the prior art.

For the compound `CC1(C)CC[C@]2(C(=O)O)CC[C@]3(C)C(=CC[C@@H]4[C@@]5(C)CC[C@H](O)C(C)(C)[C@@H]5CC[C@]43C)[C@@H]2C1` [oleanolic acid, Oleanolic acid], the carrageenin-induced swelling result in data set [1] is recorded as “inhibited carrageenin-induced swelling in rats”. Moreover, in data set [2], the capillary permeability result is given as “inhibited capillary permeability in mice”.
